These results are taken from ChEMBL document CHEMBL1136875, “Regioselective preparation of 5-hydroxypropranolol and 4'-hydroxydiclofenac with a fungal peroxygenase” (Bioorg Med Chem Lett, 2009).

The target in test [1] is T1, Aromatic peroxygenase (Cyclocybe aegerita) (UniProt B9W4V6).
T1 sequence (whole entry): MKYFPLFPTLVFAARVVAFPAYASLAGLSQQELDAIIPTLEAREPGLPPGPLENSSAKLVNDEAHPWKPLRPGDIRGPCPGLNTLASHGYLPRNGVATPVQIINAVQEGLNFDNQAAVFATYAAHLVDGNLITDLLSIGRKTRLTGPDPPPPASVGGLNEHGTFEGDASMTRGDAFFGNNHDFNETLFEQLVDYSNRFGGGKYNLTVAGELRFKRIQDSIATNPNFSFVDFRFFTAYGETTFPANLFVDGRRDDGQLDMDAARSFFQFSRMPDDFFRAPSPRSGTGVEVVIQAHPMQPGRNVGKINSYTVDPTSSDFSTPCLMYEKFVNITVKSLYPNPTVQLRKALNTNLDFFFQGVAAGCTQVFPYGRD
The test can be described thus: Activity of Agrocybe aegerita peroxygenase assessed as conversion of diclofenac to 4'-hydroxydiclofenac at 5 mM in presence of 5 mM H2O2 and 4 mM ascorbic acid.

Test [2] deals with Priestia megaterium. In words: Activity of Bacillus megaterium CYP450 D6H10 mutant assessed as conversion of diclofenac to 4'-hydroxydiclofenac at 5 mM in presence of 1 mM H2O2 and 4 mM ascorbic acid.
Test [3] has as its system Priestia megaterium. The test can be described thus: Activity of Bacillus megaterium CYP450 D6H10 mutant assessed as conversion of propranolol to 5-hydroxypropranolol at 5 mM in presence of 1 mM H2O2 and 4 mM ascorbic acid.
In test [4] the target is T1, Aromatic peroxygenase (Cyclocybe aegerita). The test can be described thus: Activity of Agrocybe aegerita peroxygenase assessed as conversion of propranolol to 5-hydroxypropranolol at 5 mM in presence of 5 mM H2O2 and 4 mM ascorbic acid.

The structures appear in SMILES notation.

Consider `O=C(O)Cc1ccccc1Nc1c(Cl)cccc1Cl`, for which the Activity (in test [1]; in the test on Priestia megaterium [2]) was 30% in each case.
As for `CC(C)NCC(O)COc1cccc2ccccc12` (centres undefined), the Activity with Priestia megaterium [3] is 0.5%; in test [4], 13.6%.
